Source: ChEMBL document CHEMBL1201862, “PubChem BioAssay data set” (2004)
Active and inactive are the calls of the source.

Columns and labels:
[1] = intracellular Trypanosoma cruzi inhibitors in host cells – cell-based, plate reader, cherry-pick samples, set 3, dose response (AID 651818); assay type: functional;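 also: compounds incubated with infected cells for about four days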
cells [2] = assay type: functional
[3] = P. falciparum Dd2 growth inhibitors, dose response, SYBR Green, cherry-picked samples (AID 1159567); assay type: functional, cell-based
[4] = target: FAD-linked sulfhydryl oxidase ALR (Homo sapiens, UniProt P55789); assay: inhibitors of human ALR sulfhydryl oxidase, dose response, biochemical, H2O2 detection, luminescence, cherry-pick (AID 493248)
Large T antigen = Large T antigen (Simian virus 40, UniProt P03070); assay type: functional, Betapolyomavirus macacae;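 also: Confirmatory-stage PubChem screen for compounds that inhibit SV40 T antigen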
[5] = target: T1, Rac GTPase-activating protein 1 (Homo sapiens, UniProt Q9H0H5); assay: MgcRacGAP GTPase-activating activity inhibitors, confirmation, biochemical, ADP Hunter fluorescence, primary and confirmatory (AID 624330); assay type: functional
T1 sequence (Q9H0H5 whole entry): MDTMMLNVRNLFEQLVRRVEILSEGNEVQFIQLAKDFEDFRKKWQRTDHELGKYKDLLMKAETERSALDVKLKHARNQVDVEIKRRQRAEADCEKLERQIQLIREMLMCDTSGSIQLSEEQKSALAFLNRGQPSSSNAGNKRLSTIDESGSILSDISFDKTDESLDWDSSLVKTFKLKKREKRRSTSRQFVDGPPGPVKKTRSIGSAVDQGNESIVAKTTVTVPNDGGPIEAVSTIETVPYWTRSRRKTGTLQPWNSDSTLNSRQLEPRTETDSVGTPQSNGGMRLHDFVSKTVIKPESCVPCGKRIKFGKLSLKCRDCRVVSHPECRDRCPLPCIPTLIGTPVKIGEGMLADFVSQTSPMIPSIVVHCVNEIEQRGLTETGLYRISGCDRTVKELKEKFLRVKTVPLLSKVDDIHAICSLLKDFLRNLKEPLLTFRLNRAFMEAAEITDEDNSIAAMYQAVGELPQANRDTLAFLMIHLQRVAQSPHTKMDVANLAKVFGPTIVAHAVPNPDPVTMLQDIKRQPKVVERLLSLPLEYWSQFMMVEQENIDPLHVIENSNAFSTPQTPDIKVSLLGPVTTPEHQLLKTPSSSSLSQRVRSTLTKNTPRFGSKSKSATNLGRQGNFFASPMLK

H9c2 = assay: cells; assay type: functional, cell-based; details: Rattus norvegicus, H9c2, Myocardium;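 also: confirmatory concentration-response retest of ultra-high-throughput screening hits for modulation of myocardial damage; cell death induced by hydrogen peroxide oxidative stress; compound pretreatment for 60 min then peroxide exposure for 2 h; potency is for protecting the cells against peroxide damage rather than for killing them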
[6] = target: T2, Replicative DNA helicase DnaB (Mycobacterium tuberculosis, UniProt P9WMR3); assay: DnaB intein splicing inhibitors, dose response, biochemical, cell-free fluorescence (AID 449749); assay type: functional
T2 sequence (P9WMR3 whole entry): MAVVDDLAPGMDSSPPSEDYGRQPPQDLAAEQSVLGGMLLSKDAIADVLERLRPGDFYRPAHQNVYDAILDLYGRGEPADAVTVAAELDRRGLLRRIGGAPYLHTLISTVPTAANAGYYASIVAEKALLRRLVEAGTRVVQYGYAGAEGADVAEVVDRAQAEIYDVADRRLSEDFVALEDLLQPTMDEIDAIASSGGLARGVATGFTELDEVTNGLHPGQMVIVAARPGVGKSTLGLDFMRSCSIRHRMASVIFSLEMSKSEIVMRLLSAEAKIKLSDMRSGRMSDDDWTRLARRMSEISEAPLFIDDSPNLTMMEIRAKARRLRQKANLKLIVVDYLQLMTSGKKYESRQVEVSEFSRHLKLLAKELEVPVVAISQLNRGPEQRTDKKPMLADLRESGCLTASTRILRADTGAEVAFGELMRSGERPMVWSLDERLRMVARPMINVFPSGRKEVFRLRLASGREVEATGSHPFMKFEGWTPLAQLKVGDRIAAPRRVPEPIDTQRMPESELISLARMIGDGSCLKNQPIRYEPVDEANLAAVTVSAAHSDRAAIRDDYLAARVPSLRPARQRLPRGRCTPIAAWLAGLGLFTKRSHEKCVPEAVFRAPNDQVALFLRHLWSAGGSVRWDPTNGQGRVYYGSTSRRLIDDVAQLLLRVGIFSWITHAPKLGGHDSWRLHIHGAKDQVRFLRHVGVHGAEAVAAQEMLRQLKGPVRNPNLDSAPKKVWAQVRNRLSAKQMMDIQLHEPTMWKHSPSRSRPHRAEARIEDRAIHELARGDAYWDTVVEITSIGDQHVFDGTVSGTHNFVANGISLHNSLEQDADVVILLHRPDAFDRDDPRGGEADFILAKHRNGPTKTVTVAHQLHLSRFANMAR

Protein RecA = target: T3, Protein RecA (Mycobacterium tuberculosis, UniProt P9WHJ3); assay: Fluorescence Cell-Free Homogeneous Dose Retest to Identify Inhibitors of RecA-Intein Splicing Activity. [Related pubchem assays (depositor defined):AID2097, AID2223, AID489010, AID492950]; assay type: functional
T3 sequence (P9WHJ3 whole entry): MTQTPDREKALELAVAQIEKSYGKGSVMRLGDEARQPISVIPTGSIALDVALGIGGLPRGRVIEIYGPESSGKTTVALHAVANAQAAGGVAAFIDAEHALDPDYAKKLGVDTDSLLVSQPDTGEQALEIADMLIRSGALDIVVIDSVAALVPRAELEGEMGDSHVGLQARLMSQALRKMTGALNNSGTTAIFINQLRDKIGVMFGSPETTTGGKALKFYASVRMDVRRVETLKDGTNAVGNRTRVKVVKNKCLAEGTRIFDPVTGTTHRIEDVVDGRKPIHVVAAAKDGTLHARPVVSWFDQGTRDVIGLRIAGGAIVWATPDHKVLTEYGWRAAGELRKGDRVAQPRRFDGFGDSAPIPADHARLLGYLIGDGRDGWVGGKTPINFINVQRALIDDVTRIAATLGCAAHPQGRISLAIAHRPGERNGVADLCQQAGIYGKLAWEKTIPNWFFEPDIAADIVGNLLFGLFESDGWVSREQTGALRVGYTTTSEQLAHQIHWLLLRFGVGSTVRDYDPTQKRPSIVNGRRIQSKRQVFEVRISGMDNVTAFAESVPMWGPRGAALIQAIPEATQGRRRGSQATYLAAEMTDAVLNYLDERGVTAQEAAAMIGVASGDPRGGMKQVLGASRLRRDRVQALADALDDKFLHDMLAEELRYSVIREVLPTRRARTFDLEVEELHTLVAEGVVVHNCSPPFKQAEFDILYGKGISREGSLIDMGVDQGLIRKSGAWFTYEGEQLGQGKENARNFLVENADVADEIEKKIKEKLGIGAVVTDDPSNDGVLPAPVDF

cells [7] = assay type: functional, cell-based
cells [8] = assay type: functional, cell-based; remark: listed apart in the source
Fatty acid synthase = Fatty acid synthase (Homo sapiens, UniProt P49327); assay: FAS thioesterase domain inhibitors, dose response, biochemical, kinetic fluorescence intensity (AID 624326); assay type: functional;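 also: rate of fluorescence rise from hydrolysis of a fluorogenic O-methyl fluorescein ester substrate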
[9] = target: T4, Heat shock factor protein 1 (Mus musculus, UniProt P38532); assay: inhibition of MG132-induced HSE-luciferase signal, confirmation, cell-based, NIH3T3, luminescence, dose retest (AID 2382); assay type: functional;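 also: NIH3T3 fibroblasts with HSF1-driven luciferase reporter stressed by proteasome inhibitor MG132; luminescence from HSF1-driven luciferase expression after 8 hours of MG132 stress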
T4 sequence (P38532 whole entry): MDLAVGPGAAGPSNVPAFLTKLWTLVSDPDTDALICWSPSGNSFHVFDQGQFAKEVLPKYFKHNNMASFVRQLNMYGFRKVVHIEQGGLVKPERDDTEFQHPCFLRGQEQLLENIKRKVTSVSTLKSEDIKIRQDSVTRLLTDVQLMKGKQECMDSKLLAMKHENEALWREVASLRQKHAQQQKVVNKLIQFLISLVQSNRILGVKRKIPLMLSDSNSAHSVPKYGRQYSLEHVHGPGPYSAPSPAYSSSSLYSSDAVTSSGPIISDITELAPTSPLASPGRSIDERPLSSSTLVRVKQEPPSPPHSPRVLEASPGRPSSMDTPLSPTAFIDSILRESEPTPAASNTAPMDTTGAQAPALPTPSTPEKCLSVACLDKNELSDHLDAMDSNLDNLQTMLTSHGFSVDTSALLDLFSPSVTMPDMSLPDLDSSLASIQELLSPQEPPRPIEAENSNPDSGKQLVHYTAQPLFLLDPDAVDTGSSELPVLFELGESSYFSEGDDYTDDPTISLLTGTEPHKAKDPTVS

Chain of Large T antigen (P03070 whole entry): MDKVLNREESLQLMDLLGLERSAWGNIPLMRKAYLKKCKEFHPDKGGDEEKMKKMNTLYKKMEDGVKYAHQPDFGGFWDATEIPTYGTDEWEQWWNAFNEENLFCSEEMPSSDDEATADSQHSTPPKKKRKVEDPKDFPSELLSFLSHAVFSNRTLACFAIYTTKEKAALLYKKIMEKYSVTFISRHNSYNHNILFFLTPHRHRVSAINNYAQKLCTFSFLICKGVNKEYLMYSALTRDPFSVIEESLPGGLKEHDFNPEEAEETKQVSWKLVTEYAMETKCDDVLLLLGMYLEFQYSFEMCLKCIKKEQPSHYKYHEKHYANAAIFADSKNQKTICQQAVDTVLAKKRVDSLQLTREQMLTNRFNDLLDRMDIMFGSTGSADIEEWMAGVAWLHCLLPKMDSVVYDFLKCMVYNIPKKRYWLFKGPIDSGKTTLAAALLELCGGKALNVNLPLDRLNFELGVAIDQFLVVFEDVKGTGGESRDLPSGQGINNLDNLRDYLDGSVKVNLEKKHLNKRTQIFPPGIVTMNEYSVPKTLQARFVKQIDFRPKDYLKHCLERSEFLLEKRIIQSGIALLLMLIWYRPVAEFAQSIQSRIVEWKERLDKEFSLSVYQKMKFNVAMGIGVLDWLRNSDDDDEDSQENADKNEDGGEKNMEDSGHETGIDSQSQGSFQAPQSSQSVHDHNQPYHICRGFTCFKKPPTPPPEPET
Chain of Fatty acid synthase (P49327 whole entry, the tested form may be a part): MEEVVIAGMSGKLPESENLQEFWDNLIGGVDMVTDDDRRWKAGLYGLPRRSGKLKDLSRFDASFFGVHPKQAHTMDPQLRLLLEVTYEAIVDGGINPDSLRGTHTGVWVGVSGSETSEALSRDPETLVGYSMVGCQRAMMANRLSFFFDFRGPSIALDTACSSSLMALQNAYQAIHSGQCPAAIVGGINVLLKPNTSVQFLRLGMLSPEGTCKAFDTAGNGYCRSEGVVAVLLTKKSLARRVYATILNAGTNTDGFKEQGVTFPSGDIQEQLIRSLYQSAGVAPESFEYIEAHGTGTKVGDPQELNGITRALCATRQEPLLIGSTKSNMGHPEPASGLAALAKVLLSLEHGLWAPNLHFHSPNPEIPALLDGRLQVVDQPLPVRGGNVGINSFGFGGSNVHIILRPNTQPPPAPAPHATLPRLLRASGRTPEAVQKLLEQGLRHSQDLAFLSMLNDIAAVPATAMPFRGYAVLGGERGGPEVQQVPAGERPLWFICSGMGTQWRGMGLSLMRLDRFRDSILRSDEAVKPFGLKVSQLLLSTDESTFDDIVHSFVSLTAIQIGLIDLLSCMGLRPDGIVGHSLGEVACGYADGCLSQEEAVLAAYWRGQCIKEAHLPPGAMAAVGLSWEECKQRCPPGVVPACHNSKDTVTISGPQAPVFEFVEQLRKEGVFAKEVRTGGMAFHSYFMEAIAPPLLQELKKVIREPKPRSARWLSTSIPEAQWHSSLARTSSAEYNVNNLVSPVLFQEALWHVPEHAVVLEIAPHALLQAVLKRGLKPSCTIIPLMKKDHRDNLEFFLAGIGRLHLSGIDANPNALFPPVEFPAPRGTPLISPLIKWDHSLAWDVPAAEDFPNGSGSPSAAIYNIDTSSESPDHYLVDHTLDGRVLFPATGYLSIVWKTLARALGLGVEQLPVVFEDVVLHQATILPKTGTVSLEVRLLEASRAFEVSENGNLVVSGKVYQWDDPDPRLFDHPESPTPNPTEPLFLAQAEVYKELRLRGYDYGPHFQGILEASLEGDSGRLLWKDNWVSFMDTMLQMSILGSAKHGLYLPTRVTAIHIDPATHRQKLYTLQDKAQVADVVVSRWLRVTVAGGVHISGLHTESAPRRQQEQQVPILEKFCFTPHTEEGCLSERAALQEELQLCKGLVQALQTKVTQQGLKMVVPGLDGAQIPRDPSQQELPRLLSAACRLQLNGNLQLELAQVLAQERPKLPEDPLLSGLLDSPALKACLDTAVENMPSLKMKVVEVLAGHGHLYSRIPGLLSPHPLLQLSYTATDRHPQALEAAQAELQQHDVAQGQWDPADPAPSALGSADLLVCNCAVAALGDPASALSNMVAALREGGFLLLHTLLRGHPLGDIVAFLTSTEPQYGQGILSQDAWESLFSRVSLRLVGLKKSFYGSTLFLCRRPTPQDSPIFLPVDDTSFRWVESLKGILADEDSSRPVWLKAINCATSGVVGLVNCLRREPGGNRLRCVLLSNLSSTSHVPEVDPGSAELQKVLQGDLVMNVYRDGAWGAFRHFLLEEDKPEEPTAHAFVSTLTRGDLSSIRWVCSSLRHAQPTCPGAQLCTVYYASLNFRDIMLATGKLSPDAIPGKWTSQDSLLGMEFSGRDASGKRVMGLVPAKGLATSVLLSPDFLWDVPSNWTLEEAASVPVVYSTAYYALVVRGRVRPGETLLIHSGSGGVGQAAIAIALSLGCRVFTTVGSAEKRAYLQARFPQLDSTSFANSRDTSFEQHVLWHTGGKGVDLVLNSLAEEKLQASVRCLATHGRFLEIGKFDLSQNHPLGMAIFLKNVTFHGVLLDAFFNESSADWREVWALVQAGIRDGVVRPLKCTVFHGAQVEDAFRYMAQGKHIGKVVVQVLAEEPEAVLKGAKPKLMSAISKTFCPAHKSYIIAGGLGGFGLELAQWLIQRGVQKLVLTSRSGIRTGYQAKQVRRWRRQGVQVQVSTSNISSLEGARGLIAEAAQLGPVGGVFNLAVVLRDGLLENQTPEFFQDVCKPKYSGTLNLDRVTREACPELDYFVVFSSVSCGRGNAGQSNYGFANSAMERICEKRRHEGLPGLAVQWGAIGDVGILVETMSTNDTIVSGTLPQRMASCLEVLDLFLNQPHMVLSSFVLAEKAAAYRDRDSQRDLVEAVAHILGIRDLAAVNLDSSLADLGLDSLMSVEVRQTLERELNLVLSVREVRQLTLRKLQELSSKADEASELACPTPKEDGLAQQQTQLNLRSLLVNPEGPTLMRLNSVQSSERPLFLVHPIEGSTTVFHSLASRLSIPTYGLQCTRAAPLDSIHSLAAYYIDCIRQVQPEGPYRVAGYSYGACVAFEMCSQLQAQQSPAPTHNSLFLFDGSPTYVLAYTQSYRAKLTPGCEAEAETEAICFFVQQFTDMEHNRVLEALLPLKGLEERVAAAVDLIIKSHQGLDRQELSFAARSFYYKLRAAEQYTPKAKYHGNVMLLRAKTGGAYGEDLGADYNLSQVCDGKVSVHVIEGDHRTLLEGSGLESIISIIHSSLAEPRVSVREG
Chain of FAD-linked sulfhydryl oxidase ALR (P55789 whole entry): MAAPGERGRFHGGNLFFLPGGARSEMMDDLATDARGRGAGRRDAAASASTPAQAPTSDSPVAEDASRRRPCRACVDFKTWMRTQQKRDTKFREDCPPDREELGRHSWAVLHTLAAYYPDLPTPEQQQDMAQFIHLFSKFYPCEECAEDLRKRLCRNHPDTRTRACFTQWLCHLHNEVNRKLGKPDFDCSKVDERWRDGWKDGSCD

In the case of `C[C@@H]1CN([C@@H](C)CO)C(=O)Cc2cc(NC(=O)Nc3ccc(C(F)(F)F)cc3)ccc2O[C@@H]1CN(C)S(=O)(=O)c1ccccc1`, the AC50 [1] is reported as 3.88 µM (active).

For `Cc1ccc(NC(=O)COC(=O)C2=COCCO2)c([N+](=O)[O-])c1`, the IC50 (cells [2]) was 3.39 µM (active).

With `CO[C@H]1CN(C)C(=O)c2ccc(NS(=O)(=O)CC(F)(F)F)cc2OC[C@@H](C)N(Cc2nccs2)C[C@H]1C` the AC50 [3] was > 39 µM (inactive).

For `COc1cc(/C=N\NC(=O)CNC(=O)c2cccc([N+](=O)[O-])c2)ccc1O`, the AC50 [4] was 2.41 µM (active), the IC50 (Large T antigen) was 3.75 µM (active) and the IC50 [5] was 16.5 µM (active).

In the case of `O=c1cc(-c2ccc(O)c(O)c2)oc2cc(O)c(C3OC(CO)C(O)C(O)C3O)c(O)c12` (centres undefined), the IC50 (Large T antigen) is reported as 5.23 µM (active) and the IC50 [5] is reported as 42.9 µM (active).

In the case of `C[C@@H]1CN([C@H](C)CO)C(=O)Cc2cc(NC(=O)Nc3ccc4c(c3)OCO4)ccc2O[C@@H]1CN(C)Cc1ccc(Cl)c(Cl)c1`, the AC50 [1] is reported as 3.71 µM (active).

With `C[C@H]1CN([C@@H](C)CO)C(=O)c2cc(NS(=O)(=O)c3ccccc3)ccc2O[C@H]1CN(C)Cc1ccc(Cl)c(Cl)c1` the AC50 [1] was 5.12 µM (active).

With `CCC(Oc1ccccc1)C(=O)Nc1ccccc1C(=O)N1CCCCC1` (centres undefined) the IC50 (H9c2) was 23.8 µM (active).

For `COc1ccc(N2C(=O)CC(Sc3n[nH]c(-c4cccc(C)c4)n3)C2=O)cc1` (centres undefined), the IC50 (Large T antigen) was 76.5 µM (active).

With `CCCCCn1c(=O)c(C(=O)NCc2ccccn2)c(O)c2ccccc21` the IC50 (H9c2) was 5.88 µM (active).

For `O=C(O)c1ccccc1C(=O)NC1=NN(c2ccccc2)CC1`, the IC50 (Large T antigen) was 14.2 µM (active).

With `COc1ccc(C(=O)Nc2ccc(O)c3ccccc23)cc1` the AC50 [6] was 1.22 µM (active), the EC50 (Protein RecA) was 0.0744 µM (active) and the IC50 (Large T antigen) was 30.8 µM (active).

For `COc1cccc(C(C[N+](=O)[O-])c2c(C)[nH]n(-c3ccccc3)c2=O)c1` (centres undefined), the AC50 [6] was 16.5 µM (active), the EC50 (cells [7]) was > 350 µM (not active) and the EC50 (Protein RecA) was 2.25 µM (active). For the same compound, the EC50 (cells [8]) was > 350 µM (not active).

With `C[C@@H]1CN([C@H](C)CO)C(=O)Cc2cc(NC(=O)Cc3cn(C)c4ccccc34)ccc2O[C@H]1CN(C)Cc1ccc(Cl)c(Cl)c1` the AC50 [1] was 3.78 µM (active).

With `CC(C)(C)OC(=O)NCCCC[C@H](NC(=O)c1[nH]cnc1C(=O)NCC(=O)OCc1ccccc1)C(=O)OC(C)(C)C` the IC50 (Fatty acid synthase) was 0.16 µM (active).

For `CCN(CC)S(=O)(=O)c1ccc(N/N=C/c2ccc(O)cc2)nc1`, the IC50 (Large T antigen) was 11.5 µM (active) and the IC50 [5] was 31.5 µM (active).

For `C[C@@H]1CN([C@H](C)CO)C(=O)Cc2cc(NC(=O)Nc3ccc(C(F)(F)F)cc3)ccc2O[C@@H]1CN(C)S(=O)(=O)c1ccc(F)cc1`, the AC50 [1] was 7.08 µM (active).

In the case of `C[C@H](CO)N1C[C@H](C)[C@H](CN(C)CC2CCCCC2)Oc2c(NC(=O)c3nc4ccccc4s3)cccc2C1=O`, the AC50 [1] is reported as 3.31 µM (active).

With `Cc1nc(N2CCN(c3ccccn3)CC2)c2c(C)c(C(=O)Nc3ccc(F)cc3)sc2n1` the IC50 (H9c2) was > 79 µM (inactive).

For `O=C(NCc1ccco1)c1cc(-c2cccnc2)nc2ccc(Cl)cc12`, the IC50 (H9c2) was > 79 µM (inactive).

In the case of `Cc1cc(C)c(S(=O)(=O)N2CCN(C(=O)c3cc(O)nc4ccccc34)CC2)c(C)c1`, the IC50 (H9c2) is reported as > 79 µM (inactive).

With `COc1cc(NC(=O)c2ccc(-c3cn[nH]c3)c3ccoc23)cc(OC)c1OC` the IC50 (H9c2) was > 79 µM (inactive).

In the case of `COc1cc(C(=O)NCCCNc2nc3cc(C)cc(C)c3cc2C#N)cc(OC)c1OC`, the IC50 (H9c2) is reported as > 79 µM (inactive).

In the case of `O=C(NN=C(Cc1ccccc1)Cc1ccccc1)c1ccncc1`, the IC50 (cells [2]) is reported as 0.17 µM (active).

For `C[C@H](CO)N1C[C@H](C)[C@H](CN(C)Cc2ccc(C(F)(F)F)cc2)Oc2ccc(NC(=O)Nc3ccc4c(c3)OCO4)cc2CC1=O`, the AC50 [1] was 5.85 µM (active).

For `CCOc1cc(N2CCOCC2)c(OCC)cc1NC(=O)COC(=O)CCOc1ccc(C)cc1`, the IC50 (Large T antigen) was > 100 µM (active).

With `C=CCc1c(C)nc2c(-c3ccccc3)cnn2c1N1CCOCC1` the EC50 (cells [7]) was > 350 µM (not active), the EC50 (cells [8]) was > 350 µM (not active) and the EC50 [9] was > 195 µM (not active).

For `C[C@@H]1CN([C@H](C)CO)C(=O)c2cccc(NC(=O)NC3CCCCC3)c2O[C@H]1CN(C)Cc1ccc(C(F)(F)F)cc1`, the AC50 [1] was 1.86 µM (active).
